Source: ChEMBL document CHEMBL5154681, “Small Amphiphilic Peptides: Activity Against a Broad Range of Drug-Resistant Bacteria and Structural Insight into Membranolytic Properties” (J Med Chem, 2022)
≈ marks a conversion by molar mass, not a printed value. Calls of active or inactive are those of the source. The rule behind the calls is not given here. Square brackets hold non-standard residues; d marks the D form. Peptide text beside a SMILES is read from it. Dip = N[C@H](C(=O)O)C(c1ccccc1)c1ccccc1; 2Nal = N[C@@H](Cc1ccc2ccccc2c1)C(=O)O

Assays:
Escherichia coli [1] = assay: Antibacterial activity against Escherichia coli ATCC 25922 incubated for 24 hrs by microtiter plate method; type: functional; conditions: Escherichia coli
[2] = Selectivity ratio of MIC for antibacterial activity against Klebsiella pneumoniae ATCC 13883 to MIC for antibacterial activity against carbapenem-resistant Klebsiella pneumoniae ATCC BAA-2470; type: functional
[3] = Hemolytic activity in human RBC assessed as hemolysis incubated for 2 hrs by spectrophotometer analysis; type: toxicity, cell-based, Erythrocyte; conditions: human red blood cells (erythrocytes)
Escherichia coli [4] = assay: Antibacterial activity against Escherichia coli ATCC 25922 after 24 hrs in presence of fetal bovine serum by microtiter plate method; type: functional
Staphylococcus aureus [5] = assay: Bactericidal activity against methicillin resistant Staphylococcus aureus ATCC BAA-1556 assessed as time required for complete reduction of bacterial growth at 4 times MIC by counting formed colonies; type: functional
[6] = Cytotoxicity against human MRC-5 assessed as cell viability at 150 ug/ml incubated for 24 hrs by microplate spectrophotometer analysis method relative to control; type: toxicity, cell-based, MRC5; conditions: MRC-5 cells, at 150 µg/mL, read-out: Activity
Staphylococcus aureus [7] = assay: Antibacterial activity against methicillin resistant Staphylococcus aureus ATCC BAA-1556 after 24 hrs in presence of 6 mM of NH4Cl by microtiter plate method; type: functional
Lipid bilayer [8] = assay: Membrano-lytic effect in mammalian membrane mimic DOPC/cholesterol (10:1) large unilamellar vesicles assessed as calcein leakage measured at 50 microg/ml measured upto 100 mins for every 10 mins by multimode microplate reader assay; type: cell membranes; conditions: dose 50.0 µg/ml
Escherichia coli [9] = assay: Antibacterial activity against Escherichia coli ATCC 25922 after 24 hrs in presence of 1 mM of MgCl2 at by microtiter plate method; type: functional
Enterococcus faecium = assay: Antibacterial activity against Enterococcus faecium ATCC 27270 incubated for 24 hrs by microtiter plate method; type: functional
Lipid bilayer [10] = assay: Membrano-lytic effect in bacterial inner membrane mimic DOPC/DOPG (7:3) large unilamellar vesicles assessed as calcein leakage measured at 50 microg/ml, incubated for 40 mins by multimode microplate reader assay; type: cell membranes; conditions: dose 50.0 µg/ml
[11] = Cytotoxicity against HEK293 assessed as cell viability at 150 ug/ml incubated for 24 hrs by microplate spectrophotometer analysis method relative to control; type: toxicity, cell-based; conditions: human, HEK293 cells, at 150 µg/mL, read-out: Activity
Staphylococcus aureus [12] = assay: Antibacterial activity against methicillin resistant Staphylococcus aureus ATCC BAA-1556 after 24 hrs in presence of fetal bovine serum by microtiter plate method; type: functional
Enterococcus faecalis = assay: Potency index, ratio of daptomycin MIC to test compound MIC for antibacterial activity against vancomycin resistant Enterococcus faecalis ATCC 51575; type: functional
Streptococcus pneumoniae = assay: Antibacterial activity against multidrug resistant […] ATCC 700677 incubated for 24 hrs by microtiter plate method; type: functional
[13] = Proteolytic stability in human plasma at 100 uM incubated for 24 hrs by Q-TOF LC/MS analysis relative to control; type: ADME, cell-free; conditions: read-out: Stability
Cell membrane [14] = assay: Membrano-lytic effect in cytoplasmic membrane of Escherichia coli ATCC BAA-2452 assessed as disruption by measuring propidium iodide fluorescence at 4 times MIC incubated for 1 hr by FACscan flow cytometer analysis
Escherichia coli [15] = assay: Antibacterial activity against Escherichia coli ATCC 25922 incubated for 24 hrs; type: functional
[16] = Cytotoxicity against HEK293 assessed as cell viability at 50 ug/ml incubated for 24 hrs by microplate spectrophotometer analysis method relative to control; type: toxicity, cell-based; conditions: human, HEK293 cells, at 50 µg/mL, read-out: Activity
Escherichia coli [17] = assay: Antibacterial activity against Escherichia coli ATCC 25922 after 24 hrs in presence of 4.5 mM of KCl at by microtiter plate method; type: functional
Pseudomonas aeruginosa = assay: Antibacterial activity against imipenem resistant Pseudomonas aeruginosa ATCC BAA-1744 incubated for 24 hrs by microtiter plate method; type: functional
Escherichia coli [18] = assay: Antibacterial activity against Escherichia coli ATCC 25922 after 24 hrs in presence of 150 mM NaCl by microtiter plate method; type: functional
Staphylococcus aureus [19] = assay: Bactericidal activity against methicillin resistant Staphylococcus aureus ATCC BAA-1556 assessed as reduction of bacterial growth at MIC by counting formed colonies; type: functional, organism-based; conditions: time <= 4.0 hrs, TDE = time-dependent effect
Cell membrane [20] = assay: Membrano-lytic effect in cytoplasmic membrane of Escherichia coli ATCC BAA-2452 assessed as disruption by measuring propidium iodide fluorescence at MIC incubated for 1 hr by FACscan flow cytometer analysis
Lipid bilayer [21] = assay: Membrano-lytic effect in bacterial inner membrane mimic DOPC/DOPG (7:3) large unilamellar vesicles assessed as calcein leakage measured at 50 microg/ml, incubated for 50 mins by multimode microplate reader assay; type: cell membranes; conditions: dose 50.0 µg/ml

Compound	Ratio [2]	HC50 at 2 h [3] [µg/mL]	MIC (Escherichia coli [4]) [µg/mL]	Activity (Staphylococcus aureus [5])	viability at 24 h, 150 ug/ml [6] [%]	MIC (Staphylococcus aureus [7]) [µg/mL]	Activity (Lipid bilayer [8]) [%]	MIC (Escherichia coli [9]) [µg/mL]	MIC (Enterococcus faecium) [µg/mL]	viability at 24 h, 150 ug/ml [11] [%]	MIC (Staphylococcus aureus [12]) [µg/mL]	Ratio (Enterococcus faecalis)	MIC (Streptococcus pneumoniae) [µg/mL]	remaining at 24 h, 100 µM [13] [%]	Activity (Cell membrane [14]) [%]	MBC (Escherichia coli [15]) [µg/mL]	viability at 24 h, 50 ug/ml [16] [%]	MIC (Escherichia coli [17]) [µg/mL]	MIC (Pseudomonas aeruginosa) [µg/mL]	MIC (Escherichia coli [18]) [µg/mL]	also measured
N=C(N)NCCC[C@@H]1NC(=O)[C@H](CCCNC(=N)N)NC(=O)[C@H](CCCNC(=N)N)NC(=O)[C@H](Cc2ccc3ccccc3c2)NC(=O)[C@H](Cc2ccc3ccccc3c2)NC(=O)[C@H](Cc2ccc3ccccc3c2)NC(=O)[C@H](CCCNC(=N)N)NC1=O (cyclo(RRRR[2Nal][2Nal][2Nal]))	2	80	> 50	Active	36	3.1	14	25	3.1 (≈ 2.55 µM)	58	6.2	2	12.5 (≈ 10.3 µM)	60	88	100 (≈ 82.2 µM)	80	25	12.5 (≈ 10.3 µM)	25	MIC (Escherichia coli [1]; ATCC 25922, 24 h, read-out: MIC): 25 µg/mL (≈ 20.6 µM); Activity (Lipid bilayer [10]): 100%; Activity (Staphylococcus aureus [19]): Tde; Activity (Cell membrane [20]): 50%
N=C(N)NCCC[C@@H]1NC(=O)[C@H](CCCNC(=N)N)NC(=O)[C@H](CCCNC(=N)N)NC(=O)[C@H](C(c2ccccc2)c2ccccc2)NC(=O)[C@H](C(c2ccccc2)c2ccccc2)NC(=O)[C@H](C(c2ccccc2)c2ccccc2)NC(=O)[C@H](CCCNC(=N)N)NC1=O (cyclo(RRRR[Dip][Dip][Dip]))	2	70	50	Active	36	3.1	18	12.5	3.1 (≈ 2.39 µM)	58	6.2	2	25 (≈ 19.3 µM)	65	78	25 (≈ 19.3 µM)	80	12.5	12.5 (≈ 9.66 µM)	12.5	MIC (Escherichia coli [1]; ATCC 25922, read-out: MIC): 12.5 µg/mL (≈ 9.66 µM); Activity (Lipid bilayer [21]): 100%; Activity (Staphylococcus aureus [19]): Tde; Activity (Cell membrane [20]): 50%
